Among the data in patent US9206128B2 (Constellation Pharmaceuticals, Inc., priority 2011, dated 2015) are IC50 values, retold here.

In general, IC50 refers to the midpoint of a concentration-inhibition curve. A low value points to greater potency in that assay.

The target of one test is EZH2 (Homo sapiens, UniProt Q15910). Briefly: EZH2 activity inhibition assay (rPRC2, 3H SAM, biotinylated oligonucleosomes, FlashPlate). Type of test: biochemical. The conditions noted are these: rPRC2, 2 nM EZH2, 0.2 μM 3H SAM, top concentration 80 μM. Here is the method: (§1) EZH2 Assay: Assays were carried out by mixing rPRC2 together with biotinylated oligonucleosome substrates in the presence of the radio-labeled enzyme co-factor, S-adenosyl-L-methionine (^3H SAM) (Perkin Elmer) and monitoring the enzymatically mediated transfer of tritiated methyl groups from ^3H SAM to histone lysine residues. The amount of resulting tritiated methyl histone product was measured by first capturing the biotinylated oligonucleosomes in streptavidin (SAV) coated FlashPlates (Perkin Elmer), followed by a wash step to remove un-reacted ^3H SAM, and then counting on a TopCount NXT 384 well plate scintillation counter (Perkin Elmer).
A 12.5 μL volume of the HMT enzyme, H3K27me3 peptide and oligonucleosome substrate in assay buffer was added to each well of the assay plate using a Multidrop Combi (ThermoFisher). Compounds were pre-incubated with the enzyme for 20 min, followed by initiation of the methyltransferase reaction by addition of 12.5 μL of 3H SAM in assay buffer (final volume=25 μL). […] Stopped reactions were transferred to SAV coated Flashplates (Perkin Elmer), incubated for 120 min, washed with a plate washer, and then read on the TopCount NXT (1.0 min/well) to measure the amount of methyl histone product formed during the reaction.

The next test addresses Y641N EZH2 (Homo sapiens, UniProt Q15910, Y641N). Briefly: Y641N EZH2 activity inhibition assay (as EZH2 assay, reconstituted H3K27Me2 oligonucleosomes as substrate). In kind it is biochemical. To be noted: Y641N EZH2 mutant enzyme. Here is the method: as §1, with “Elmer). The final assay conditions for EZH2 were as follows: 50 mM Tris Buffer pH 8.5, 1 mM DTT, 69 μM Brij-35 detergent, 5.0 mM MgCl2, 0.1 mg/mL BSA, 0.2 μM ^3H SAM, 0.2 μM biotinylated oligonucleosomes, 3.6 μM H3K27me3 peptide and 2 nM EZH2.” for “Elmer).”
A 12.5 μL volume of the HMT enzyme, H3K27me3 peptide and oligonucleosome substrate in assay buffer was added to each well of the assay plate using a Multidrop Combi (ThermoFisher). Compounds were pre-incubated with the enzyme for 20 min, followed by initiation of the methyltransferase reaction by addition of 12.5 μL of 3H SAM in assay buffer (final volume=25 μL). The final concentrations of compounds ranged from a top default concentration of 80 μM down to 0.16 μM in ten 2-fold dilution steps. Reactions were carried out for 60 minutes and quenched with 20 μL per well of 1.96 mM SAH, 50 mM Tris PH 8.5, 200 mM EDTA. Stopped reactions were transferred to SAV coated Flashplates (Perkin Elmer), incubated for 120 min, washed with a plate washer, and then read on the TopCount NXT (1.0 min/well) to measure the amount of methyl histone product formed during the reaction.

Y641N EZH2, sequence (Q15910 whole entry Y641N): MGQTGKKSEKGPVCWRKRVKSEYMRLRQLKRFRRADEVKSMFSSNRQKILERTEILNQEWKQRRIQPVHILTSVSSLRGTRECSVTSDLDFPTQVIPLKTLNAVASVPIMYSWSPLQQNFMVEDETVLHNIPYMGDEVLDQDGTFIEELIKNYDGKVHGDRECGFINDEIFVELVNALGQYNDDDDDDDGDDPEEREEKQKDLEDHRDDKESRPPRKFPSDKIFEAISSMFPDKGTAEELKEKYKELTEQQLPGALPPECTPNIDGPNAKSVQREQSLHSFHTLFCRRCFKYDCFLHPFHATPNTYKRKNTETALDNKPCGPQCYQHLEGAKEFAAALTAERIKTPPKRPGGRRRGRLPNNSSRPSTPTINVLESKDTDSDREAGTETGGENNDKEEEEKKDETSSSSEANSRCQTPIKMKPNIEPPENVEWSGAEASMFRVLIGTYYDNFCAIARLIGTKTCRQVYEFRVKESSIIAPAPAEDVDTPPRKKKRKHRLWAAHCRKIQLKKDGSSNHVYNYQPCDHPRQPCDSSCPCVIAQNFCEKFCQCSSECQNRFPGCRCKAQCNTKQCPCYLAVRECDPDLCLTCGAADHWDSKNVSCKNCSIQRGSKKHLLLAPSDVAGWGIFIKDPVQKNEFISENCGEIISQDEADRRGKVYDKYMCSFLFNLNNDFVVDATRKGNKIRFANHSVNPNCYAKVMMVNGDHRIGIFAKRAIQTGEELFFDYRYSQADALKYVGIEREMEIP
Y641N EZH2, sequence (O75530 whole entry partner): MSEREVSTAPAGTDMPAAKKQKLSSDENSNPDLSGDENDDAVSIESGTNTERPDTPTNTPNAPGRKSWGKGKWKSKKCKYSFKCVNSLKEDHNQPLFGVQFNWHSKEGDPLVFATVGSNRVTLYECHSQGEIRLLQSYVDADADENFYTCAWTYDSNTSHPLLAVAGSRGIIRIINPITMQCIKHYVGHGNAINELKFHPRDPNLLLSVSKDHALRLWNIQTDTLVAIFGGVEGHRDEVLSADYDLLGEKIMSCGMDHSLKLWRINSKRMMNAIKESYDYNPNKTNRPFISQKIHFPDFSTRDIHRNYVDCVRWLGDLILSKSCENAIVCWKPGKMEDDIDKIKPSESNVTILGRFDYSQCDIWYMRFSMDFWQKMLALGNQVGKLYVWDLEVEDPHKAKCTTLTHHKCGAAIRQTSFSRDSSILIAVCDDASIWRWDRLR
Y641N EZH2, sequence (Q15022 whole entry partner): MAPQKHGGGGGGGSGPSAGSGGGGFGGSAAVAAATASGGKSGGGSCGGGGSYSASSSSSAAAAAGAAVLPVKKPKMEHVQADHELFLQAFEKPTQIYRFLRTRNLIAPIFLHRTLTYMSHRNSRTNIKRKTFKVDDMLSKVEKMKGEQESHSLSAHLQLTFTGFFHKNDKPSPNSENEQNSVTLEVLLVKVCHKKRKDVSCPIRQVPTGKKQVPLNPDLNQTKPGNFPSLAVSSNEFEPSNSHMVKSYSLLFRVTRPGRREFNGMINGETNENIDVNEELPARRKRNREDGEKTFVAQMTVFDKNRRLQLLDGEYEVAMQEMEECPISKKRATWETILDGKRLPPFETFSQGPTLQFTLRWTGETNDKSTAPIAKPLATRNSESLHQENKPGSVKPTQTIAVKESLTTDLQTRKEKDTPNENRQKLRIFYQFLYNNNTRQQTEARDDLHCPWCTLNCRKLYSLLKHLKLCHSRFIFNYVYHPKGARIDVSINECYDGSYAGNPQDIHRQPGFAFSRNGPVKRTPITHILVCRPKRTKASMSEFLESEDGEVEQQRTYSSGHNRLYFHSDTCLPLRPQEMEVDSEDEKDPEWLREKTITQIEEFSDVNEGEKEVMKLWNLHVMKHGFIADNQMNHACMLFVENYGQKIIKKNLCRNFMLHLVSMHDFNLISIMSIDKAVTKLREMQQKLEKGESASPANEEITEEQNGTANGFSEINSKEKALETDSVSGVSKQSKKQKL
EZH2, sequence (Q15910 whole entry): as the sequence (Q15910 whole entry Y641N) above, with N641Y counted along it
EZH2, sequence (O75530 whole entry partner): as the sequence (O75530 whole entry partner) above
EZH2, sequence (Q15022 whole entry partner): as the sequence (Q15022 whole entry partner) above

For `Cc1cc(C)c(CNC(=O)c2ccc(C(C)N3CCCCC3=O)cc2)c(=O)[nH]1` (stereo not shown) [Compound I-88, N-((2-hydroxy-4,6-dimethylpyridin-3-yl)methyl)-4-(1-(2-oxopiperidin-1-yl)ethyl)benzamide], the IC50 against EZH2 was 1 to 10 µM; against Y641N EZH2, greater than 80 µM.

Regarding `Cc1cc(C)c(CNC(=O)c2ccc(Oc3ccccc3)cn2)c(=O)[nH]1` [Compound I-21, N-((2-hydroxy-4,6-dimethylpyridin-3-yl)methyl)-5-phenoxypicolinamide], the IC50 was in the range of 1 to 10 µM against EZH2 and 10 to 50 µM at Y641N EZH2.

Consider `Cc1nc(C)c(CNC(=O)c2ccc(Oc3ccccc3)cc2)c(=O)[nH]1` [Compound I-59, N-((4-hydroxy-2,6-dimethylpyrimidin-5-yl)methyl)-4-phenoxybenzamide], for which the IC50 on EZH2 and against Y641N EZH2 was 1 to 10 µM throughout.

Turning to `COC(c1ccccc1)c1ccc(C(=O)NCc2c(C)cc(C)[nH]c2=O)cc1` (stereo not shown) [Compound I-53, N-((2-hydroxy-4,6-dimethylpyridin-3-yl)methyl)-4-(methoxy(phenyl)methyl)benzamide], the IC50 at EZH2 and against Y641N EZH2 was 10 to 50 µM in each case.

For `Cc1cc(C)c(CNC(=O)c2ccc([C@@H](C)Oc3cccc(C#N)c3)cc2)c(=O)[nH]1` [Compound I-168], the results for the IC50 on EZH2 and against Y641N EZH2 were 1 to 10 µM and greater than 80 µM, respectively.

Regarding `Cc1cc(C)c(CNC(=O)c2ccc(Oc3ccccc3)cc2C)c(=O)[nH]1` [Compound I-28, N-((2-hydroxy-4,6-dimethylpyridin-3-yl)methyl)-2-methyl-4-phenoxybenzamide], the figures for the IC50 against EZH2 and at Y641N EZH2 were 1 to 10 µM and 10 to 50 µM, respectively.

With `Cc1cc(C)c(CNC(=O)c2ccc(COc3ccccc3)c(C)c2)c(=O)[nH]1` [Compound I-54, N-((2-hydroxy-4,6-dimethylpyridin-3-yl)methyl)-3-methyl-4-(phenoxymethyl)benzamide], the IC50 on EZH2 is less than 1 µM; against Y641N EZH2, 1 to 10 µM.

With `Cc1cc(C)c(CNC(=O)c2ccc3c(c2)CCC3Oc2ccccc2)c(=O)[nH]1` (stereo not shown) [Compound I-45, N-((2-hydroxy-4,6-dimethylpyridin-3-yl)methyl)-1-phenoxy-2,3-dihydro-1H-indene-5-carboxamide], the concentration for half-maximal inhibition (IC50) against EZH2 was greater than 50 µM; against Y641N EZH2, greater than 80 µM.

In the case of `Cc1c[nH]c(=O)c(CNC(=O)c2ccc(C(C)Oc3ccccc3)cc2)c1` (stereo not shown) [Compound I-156], the IC50 against EZH2 and against Y641N EZH2 was greater than 80 µM in each case.

Take `Cc1cc(C)c(CNC(=O)c2c(C)cn(C(C)c3ccccc3)c(=O)c2C)c(=O)[nH]1` (stereo not shown) [Compound I-200, N-((4,6-dimethyl-2-oxo-1,2-dihydropyridin-3-yl)methyl)-3,5-dimethyl-2-oxo-1-(1-phenylethyl)-1,2-dihydropyridine-4-carboxamide]: the IC50 against EZH2 was less than 1 µM; at Y641N EZH2, 1 to 10 µM.

Consider `Cc1cc(C)c(CN(C)C(=O)c2ccc(Oc3ccccc3)cc2)c(O)n1` [Compound I-20, N-((2-hydroxy-4,6-dimethylpyridin-3-yl)methyl)-N-methyl-4-phenoxybenzamide], for which the IC50 at EZH2 was 1 to 10 µM; against Y641N EZH2, greater than 50 µM.

For the molecule `Cc1cc(C(F)(F)F)c(CNC(=O)c2ccc(Oc3ccccc3)cc2)c(=O)[nH]1` [Compound I-65, N-((2-hydroxy-6-methyl-4-(trifluoromethyl)pyridin-3-yl)methyl)-4-phenoxybenzamide], the values for the half-inhibitory concentration (IC50) against EZH2 and at Y641N EZH2 were 10 to 50 µM and greater than 80 µM, respectively.

Turning to `Cc1cccc(OC(C)c2ccc(C(=O)NCc3c(C)cc(C)[nH]c3=O)cc2)c1` (stereo not shown) [Compound I-39, N-((2-hydroxy-4,6-dimethylpyridin-3-yl)methyl)-4-(1-(m-tolyloxy)ethyl)benzamide], the 50% inhibitory concentration (IC50) on EZH2 and against Y641N EZH2 was less than 1 µM each time.

Regarding `Cc1cc(C)c(CNC(=O)c2ccc(Nc3ccccc3)nc2)c(=O)[nH]1` [Compound I-18], the IC50 on EZH2 was 10 to 50 µM; against Y641N EZH2, greater than 80 µM.

With `COCC(Oc1ccccc1)c1ccc(C(=O)NCc2c(C)cc(C)[nH]c2=O)cc1` (stereo not shown) [Compound I-193], the IC50 on EZH2 and against Y641N EZH2 was greater than 80 µM in each case.

On to `Cc1cc(C)c(CNC(=O)c2ccc(C(C)OC3CCOC3)cc2)c(=O)[nH]1` (stereo not shown) [Compound I-184, N-((2-hydroxy-4,6-dimethylpyridin-3-yl)methyl)-4-(1-(tetrahydrofuran-3-yloxy)ethyl)benzamide], for which the IC50 is less than 1 µM against EZH2 and 1 to 10 µM at Y641N EZH2.

Turning to `Cc1cc(N)c(CNC(=O)c2ccc(Oc3ccccc3)cc2)c(=O)[nH]1` [Compound I-196, N-((4-amino-2-hydroxy-6-methylpyridin-3-yl)methyl)-4-phenoxybenzamide], the IC50 against EZH2 is 1 to 10 µM; against Y641N EZH2 it was greater than 80 µM.

Take `Cc1cc(C)c(CNC(=O)c2ccc(C(C)n3ccccc3=O)cc2)c(=O)[nH]1` (stereo not shown) [Compound I-56, N-((2-hydroxy-4,6-dimethylpyridin-3-yl)methyl)-4-(1-(2-oxopyridin-1(2H)-yl)ethyl)benzamide]: the IC50 was 1 to 10 µM at EZH2 and greater than 80 µM on Y641N EZH2.

In the case of `Cc1cc(C)c(CNC(=O)c2ccc3c(c2)CCCC3Oc2ccccc2)c(=O)[nH]1` (stereo not shown) [Compound I-52, N-((2-hydroxy-4,6-dimethylpyridin-3-yl)methyl)-5-phenoxy-5,6,7,8-tetrahydronaphthalene-2-carboxamide], the IC50 on EZH2 and on Y641N EZH2 was 10 to 50 µM each time.

For `Cc1cc(C)c(CNC(=O)c2ccc(C(C)Oc3ccccc3)nc2)c(=O)[nH]1` (stereo not shown) [Compound I-64, N-((2-hydroxy-4,6-dimethylpyridin-3-yl)methyl)-6-(1-phenoxyethyl)nicotinamide], the IC50 against EZH2 is 1 to 10 µM; against Y641N EZH2, greater than 80 µM.

Regarding `Cc1cc(C)c(CNC(=O)c2ccc(C(C)Oc3ccccc3)cc2Cl)c(=O)[nH]1` (stereo not shown) [Compound I-66, 2-chloro-N-((2-hydroxy-4,6-dimethylpyridin-3-yl)methyl)-4-(1-phenoxyethyl)benzamide], the IC50 against EZH2 and at Y641N EZH2 was less than 1 µM in each case.

For the molecule `Cc1cc(C)c(CNC(=O)c2ncc(Oc3ccccc3)cn2)c(=O)[nH]1` [Compound I-159], the IC50 on EZH2 and against Y641N EZH2 was greater than 80 µM each time.

With `O=C(NCc1cc2c([nH]c1=O)CCC2)c1ccc(Oc2ccccc2)cc1` [Compound I-178, N-((2-oxo-2,5,6,7-tetrahydro-1H-cyclopenta[b]pyridin-3-yl)methyl)-4-phenoxybenzamide], the IC50 against EZH2 and against Y641N EZH2 was 10 to 50 µM throughout.

As for `COc1cc(Oc2ccccc2)ccc1C(=O)NCc1c(C)cc(C)[nH]c1=O` [Compound I-32, N-((2-hydroxy-4,6-dimethylpyridin-3-yl)methyl)-2-methoxy-4-phenoxybenzamide], the IC50 against EZH2 is less than 1 µM; against Y641N EZH2 it was 1 to 10 µM.

For `O=C(NCc1ccc(-c2ccccc2)[nH]c1=O)c1ccc(Oc2ccccc2)cc1` [Compound I-170], the concentration for half-maximal inhibition (IC50) on EZH2 and on Y641N EZH2 was greater than 80 µM throughout.

Take `Cc1cc(C)c(CNC(=O)c2ccc(C(C)Oc3ccccc3)cc2)c(=O)[nH]1` (stereo in doubt) [Compound I-30, (S)—N-((2-hydroxy-4,6-dimethylpyridin-3-yl)methyl)-4-(1-phenoxyethyl)benzamide]: the results for the IC50 against EZH2 and against Y641N EZH2 were 10 to 50 µM and greater than 80 µM, respectively.

As to `Cc1cc(C)c(CNC(=O)c2ccc([C@H](C)Oc3cccc(C#N)c3)cc2)c(=O)[nH]1` [Compound I-169], the half-inhibitory concentration (IC50) against EZH2 and against Y641N EZH2 was less than 1 µM each time.

With `Cc1cc(C)c(CNC(=O)c2ccc(C3Cc4ccccc4O3)cc2)c(=O)[nH]1` (stereo not shown) [Compound I-51, 4-(2,3-dihydrobenzofuran-2-yl)-N-((2-hydroxy-4,6-dimethylpyridin-3-yl)methyl)benzamide], the IC50 on EZH2 is 1 to 10 µM; against Y641N EZH2, greater than 80 µM.

`Cc1cc(C)c(CNC(=O)c2ccc(CNc3ccccc3)cc2)c(=O)[nH]1` [Compound I-40, N-((2-hydroxy-4,6-dimethylpyridin-3-yl)methyl)-4-((phenylamino)methyl)benzamide]: the 50% inhibitory concentration (IC50) against EZH2 was in the range of 1 to 10 µM; on Y641N EZH2 it was 10 to 50 µM.
